Experimental data published in patent publication US11458189B2, “Cytoprotective drugs” (BALMES TRANSPLANTATION, priority 2017, dated 2022).
Starred links: 1 amine or outer side, 2 acyl side, 3 side chain; linkers in the order of their positions; H or OH if unused. Positions of bridges follow the written chain, without caps; N, C: chain ends. Non-standard residues stand in square brackets, D forms with d. Residues, ends and D or L forms follow the SMILES beside them. *: point of attachment. hTyr(3S-OH,4S-OH,3'-OSO3H) = N[C@H](C(=O)O)[C@H](O)[C@@H](O)c1ccc(O)c(OS(=O)(=O)O)c1; Orn(4R-OH,5R-OH) = O=C([C@H](C[C@@H](O)[C@@H](O)N[*:3])N[*:1])[*:2]; Pro(3S-OH,4S-Me) = C[C@H]1CN[C@H](C(=O)O)[C@H]1O; X1 = CCCCCOc1ccc(-c2cc(-c3ccc(C(=O)*)cc3)no2)cc1; Gln(3R-OH) = NC(=O)C[C@@H](O)[C@H](N)C(=O)O; Hyp = O=C(O)[C@@H]1C[C@@H](O)CN1

Test system: Human Renal Glomerular Endothelial Cells (HRGEC)
Test: Oxygen and glucose deprivation followed by replenishment, cell survival (calcein AM), HRGEC
Format: cell-based
Procedure: Anidulafungin and micafungin were tested on Human Renal Glomerular Endothelial Cells (HRGEC, Innoprot P10665), on Human Renal Proximal Tubular Epithelial Cells (HRPTEpiC, Innoprot P10662), on Human Astrocytes (HA, caltag SC-1800), on Human Cardiac Microvascular Endothelial Cells (HCMEC, Caltag SC-6000), on Human Hepatic Sinusoidal Endothelial Cells (HHSEC, Caltag SC-5000), on Rat Primary Kidney Glomerular Endothelial cells (Cellbiologics, RN-6014G) and on Bovine Brain Microvascular Endothelial Cells (BBMEC, Caltag SC-B100).
In a first phase, these isolated, purified and cryopreserved cells are thawed and multiplied according to the supplier's recommendations in T75 or T175 flasks pre-coated with 2 μg of fibronectin/[…] (CORNING) for HRGEC, HCMEC, HHSEC and BBMEC, or 2 μg poly-L-lysin/cm^2 (Caltag SC-0403) for HRPTEpiC and HA, or 15 mL/flask 175 cm^2 gelatin-based solution (Cellbiologics) in the presence of endothelial cell supplemented growth medium ECM (P60104, INNOPROT, Caltag, SC-1001) for HRGEC, HCMEC, HHSEC, RPKGEC or BBMEC, or astrocyte cell supplemented growth medium AM (Caltag SC-1801) for HA or epithelial cell supplemented growth medium EpiCM (P60106, INNOPROT) for HRPTEpiC, at 37° C. under 5% CO2 and saturated humidity until their confluency. They are then harvested by trypsinization according to the method described by the supplier for exactly 5 minutes and then reseeded in new flasks a maximum of three times.
To carry out the oxygen and glucose deprivation test followed by their replenishment, the cells will be seeded in 96-well black plates with transparent flat bottom (GREINER). Once a sufficient number of cells has been obtained to allow seeding of 2000 to 15000 cells per well of 96-well plates depending on the cell type, the cells are seeded in these 96-well plates previously coated with an extracellular matrix as listed above for the flasks. The cells are cultured for 5 to 8 days according to the cell type, in the presence of the same growth medium as in the flask as described above except for HRGEC and HRPTEpiC for which DMEM (DUTSCHER) with 1 g/L of supplemented glucose is used, at 37° C. under 5% CO2 and saturated humidity to obtain confluency.
On the first day of oxygen and glucose deprivation, (5th, 6th, 7th or 8th day of culture), the culture conditions are drastically changed. The medium of all plates is removed and replaced by DMEM (DUTSCHER) medium without glucose and supplemented only with 1% penicillin-streptomycin (DUTSCHER). Anidulafungin or micafungin dissolved in dimethyl sulfoxide (DMSO) is then added to each well at the desired concentration, resulting in a maximum of 1% DMSO, and the plates are placed under hypoxia at <1% 02 and 5% CO2 at 37° C. for 24 hours of culture. Each compound was tested in a concentration range.
After 24 hours, the growth medium is changed and replaced by a richer medium, DMEM (DUTSCHER) at 1 g/L glucose and 2% FBS (INNOPROT) and 1% penicillin-streptomycin (DUTSCHER). These media will have been pre-equilibrated at 37° C. in advance. The cells are then returned to culture at 37° C. under 20% 02 and 5% CO2 for 22h.
After 22 hours of reoxygenation, the potential protective effect of anidulafungin or micafungin is measured by a cell viability test using calcein AM (CORNING), which is a dye substrate. The calcein AM can easily cross the cell membrane of the viable cells. The AM ester groups mask the part of the molecule that chelates calcium. Once inside the cells, the (non-fluorescent) calcein AM is hydrolyzed to (fluorescent) calcein by endogenous esterases. The resulting calcein molecule binds to calcium inside the cell and remains trapped inside the cell. These molecules emit strong green fluorescence when subjected to […] of a particular wavelength (495 nm). Since dead cells lack esterase activity, only living cells are labelled.
This cell viability test is performed in two steps. […]

## CCCCCOc1ccc(-c2cc(-c3ccc(C(=O)N[C@H]4C[C@@H](O)[C@@H](O)NC(=O)[C@@H]5[C@@H](O)[C@@H](C)CN5C(=O)[C@H]([C@H](O)CC(N)=O)NC(=O)[C@H]([C@H](O)[C@@H](O)c5ccc(O)c(OS(=O)(=O)O)c5)NC(=O)[C@@H]5C[C@@H](O)CN5C(=O)[C@H]([C@@H](C)O)NC4=O)cc3)no2)cc1 [Micafungin, {5-[(1S,2S)-2-[(3S,6S,9S,11R,15S,18S,20R,21R,24S,25S,26S)-3-[(1R)-2-carbamoyl-1-hydroxyethyl]-11,20,21,25-tetrahydroxy-15-[(1R)-1-hydroxyethyl]-26-methyl-2,5,8,14,17,23-hexaoxo-18-[(4-{5-[4-(pentyloxy)phenyl]-1,2-oxazol-3-yl}benzene)amido]-1,4,7,13,16,22-hexaazatricyclo[22.3.0.0]heptacosan-6-yl]-1,2-dihydroxyethyl]-2-hydroxyphenyl}oxidanesulfonic acid] (X1-[Orn(4R-OH,5R-OH)]T[Hyp][hTyr(3S-OH,4S-OH,3'-OSO3H)][Gln(3R-OH)][Pro(3S-OH,4S-Me)]; lactam 1-C)
[Micafungin] log μM −4
  Globalfluo assay 1: 11181240 arbitrary units
  Globalfluo assay 2: 11805530 arbitrary units
  Globalfluo assay 3: 11095570 arbitrary units
  Mean globalfluo: 11360780 arbitrary units
  Survival rate (%): 37%
[Micafungin] log μM −4.124939
  Globalfluo assay 1: 12113050 arbitrary units
  Globalfluo assay 2: 11168770 arbitrary units
  Globalfluo assay 3: 11691720 arbitrary units
  Mean globalfluo: 11657847 arbitrary units
  Survival rate (%): 38%
[Micafungin] log μM −4.30103
  Globalfluo assay 1: 10705920 arbitrary units
  Globalfluo assay 2: 12585990 arbitrary units
  Globalfluo assay 3: 12661760 arbitrary units
  Mean globalfluo: 11984557 arbitrary units
  Survival rate (%): 40%
[Micafungin] log μM −4.39794
  Globalfluo assay 1: 12034270 arbitrary units
  Globalfluo assay 2: 11904770 arbitrary units
  Globalfluo assay 3: 11704580 arbitrary units
  Mean globalfluo: 11881207 arbitrary units
  Survival rate (%): 39%
[Micafungin] log μM −4.522879
  Globalfluo assay 1: 9416001 arbitrary units
  Globalfluo assay 2: 11987430 arbitrary units
  Globalfluo assay 3: 10070420 arbitrary units
  Mean globalfluo: 10491284 arbitrary units
  Survival rate (%): 34%
[Micafungin] log μM −4.60206
  Globalfluo assay 1: 10458840 arbitrary units
  Globalfluo assay 2: 10594720 arbitrary units
  Globalfluo assay 3: 8636463 arbitrary units
  Mean globalfluo: 9896674 arbitrary units
  Survival rate (%): 31%
[Micafungin] log μM −4.69897
  Globalfluo assay 1: 8790971 arbitrary units
  Globalfluo assay 2: 10993750 arbitrary units
  Globalfluo assay 3: 9050581 arbitrary units
  Mean globalfluo: 9611767 arbitrary units
  Survival rate (%): 30%
[Micafungin] log μM −4.823909
  Globalfluo assay 1: 9039973 arbitrary units
  Globalfluo assay 2: 8208392 arbitrary units
  Globalfluo assay 3: 7686254 arbitrary units
  Mean globalfluo: 8311540 arbitrary units
  Survival rate (%): 25%
[Micafungin] log μM −5
  Globalfluo assay 1: 5367938 arbitrary units
  Globalfluo assay 2: 7594623 arbitrary units
  Globalfluo assay 3: 5742300 arbitrary units
  Mean globalfluo: 6234954 arbitrary units
  Survival rate (%): 16%
[Micafungin] log μM −5.09691
  Globalfluo assay 1: 5198634 arbitrary units
  Globalfluo assay 2: 5680528 arbitrary units
  Globalfluo assay 3: 4518691 arbitrary units
  Mean globalfluo: 5132618 arbitrary units
  Survival rate (%): 11%
[Micafungin] log μM −5.221849
  Globalfluo assay 1: 5545222 arbitrary units
  Globalfluo assay 2: 4844574 arbitrary units
  Globalfluo assay 3: 4333143 arbitrary units
  Mean globalfluo: 4907646 arbitrary units
  Survival rate (%): 10%
[Micafungin] log μM −5.39794
  Globalfluo assay 1: 3889914 arbitrary units
  Globalfluo assay 2: 3964004 arbitrary units
  Globalfluo assay 3: 4064339 arbitrary units
  Mean globalfluo: 3972752 arbitrary units
  Survival rate (%): 7%
[Micafungin] log μM −5.69897
  Globalfluo assay 1: 3399775 arbitrary units
  Globalfluo assay 2: 3118863 arbitrary units
  Globalfluo assay 3: 3166056 arbitrary units
  Mean globalfluo: 3228231 arbitrary units
  Survival rate (%): 4%
[Micafungin] log μM −6
  Globalfluo assay 1: 3157528 arbitrary units
  Globalfluo assay 2: 2851345 arbitrary units
  Globalfluo assay 3: 2667237 arbitrary units
  Mean globalfluo: 2892037 arbitrary units
  Survival rate (%): 2%
[Micafungin] log μM −6.30103
  Globalfluo assay 1: 2192241 arbitrary units
  Globalfluo assay 2: 2496288 arbitrary units
  Globalfluo assay 3: 2306718 arbitrary units
  Mean globalfluo: 2331749 arbitrary units
  Survival rate (%): 0%
[Micafungin] log μM −7
  Globalfluo assay 1: 2276775 arbitrary units
  Globalfluo assay 2: 2276419 arbitrary units
  Globalfluo assay 3: 1622516 arbitrary units
  Mean globalfluo: 2058570 arbitrary units
  Survival rate (%): −1%
